Results taken from patent US9266857B2, “Bicyclic AZA compounds as muscarinic M1 receptor agonists” (Heptares Therapeutics Limited, priority 2012, dated 2016).
Where two headings read alike, the source gives them in different places.

Columns and labels:
Assay type in all cases: cell-based
[1] = biological target: T1, human muscarinic M1 receptor (Homo sapiens, UniProt P11229); assay: Alphascreen Surefire phospho-ERK1/2 functional assay, M1; conditions: for EC50: CHO cells stably expressing human M1, phospho-ERK1/2, read-out: pEC50 M1 (converted); for Emax: CHO
T1 construct: expressed in transfected cells
T1 sequence (P11229 1-460): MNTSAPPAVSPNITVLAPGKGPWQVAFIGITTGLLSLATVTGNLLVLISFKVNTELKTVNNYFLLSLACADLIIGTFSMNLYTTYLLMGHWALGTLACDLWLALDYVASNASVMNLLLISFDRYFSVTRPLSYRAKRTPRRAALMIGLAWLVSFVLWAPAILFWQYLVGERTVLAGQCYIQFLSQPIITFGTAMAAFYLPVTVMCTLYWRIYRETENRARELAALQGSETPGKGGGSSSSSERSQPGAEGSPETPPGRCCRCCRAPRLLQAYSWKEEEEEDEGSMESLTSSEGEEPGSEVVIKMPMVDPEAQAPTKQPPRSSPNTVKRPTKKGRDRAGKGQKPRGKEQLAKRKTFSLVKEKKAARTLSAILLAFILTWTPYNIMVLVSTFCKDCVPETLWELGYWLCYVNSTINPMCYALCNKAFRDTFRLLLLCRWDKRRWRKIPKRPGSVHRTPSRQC
Method: (§1) ERK1/2 phosphorylation is a downstream consequence of both Gq/11 and Gi/o protein coupled receptor activation, making it highly suitable for the assessment of M1, M3 (Gq/11 coupled) and M2, M4 receptors (Gi/o coupled), rather than using different assay formats for different receptor subtypes. CHO cells stably expressing the human muscarinic M1, M2, M3 or M4 receptor were plated (25K/well) onto 96-well tissue culture plates in MEM-alpha+10% dialysed FBS. Once adhered, cells were serum-starved overnight. Agonist stimulation was performed by the addition of 5 μL agonist to the cells for 5 min (37° C.). Media was removed and 50 μL of lysis buffer added. After 15 min, a 4 μL sample was transferred to 384-well plate and 7 μL of detection mixture added. Plates were incubated for 2 h with gentle agitation in the dark and then read on a PHERAstar plate reader.
(§2) pEC50 and Emax figures were calculated from the resulting data for each receptor subtype.

[2] = biological target: T2, human muscarinic M4 receptor (Homo sapiens, UniProt P08173); assay: Alphascreen Surefire phospho-ERK1/2 functional assay, M4; conditions: for EC50: phospho-ERK1/2, read-out: pEC50 M4 (converted); for Emax: CHO
T2 construct: expressed in transfected cells
T2 sequence (P08173 1-479): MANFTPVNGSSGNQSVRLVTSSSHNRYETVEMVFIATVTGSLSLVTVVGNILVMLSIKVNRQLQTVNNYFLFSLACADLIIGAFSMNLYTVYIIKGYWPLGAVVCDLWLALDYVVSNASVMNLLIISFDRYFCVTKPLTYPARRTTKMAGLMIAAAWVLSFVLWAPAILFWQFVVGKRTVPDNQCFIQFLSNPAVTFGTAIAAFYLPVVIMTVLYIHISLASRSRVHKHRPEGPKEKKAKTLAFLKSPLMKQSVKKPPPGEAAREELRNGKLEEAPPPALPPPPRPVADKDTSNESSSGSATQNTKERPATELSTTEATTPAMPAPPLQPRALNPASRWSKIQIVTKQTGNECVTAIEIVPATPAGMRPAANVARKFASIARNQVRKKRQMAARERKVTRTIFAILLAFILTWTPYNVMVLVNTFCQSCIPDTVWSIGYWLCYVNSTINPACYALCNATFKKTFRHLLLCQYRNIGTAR
Method: as §1, §2

[3] = biological target: T3, human muscarinic M2 receptor (Homo sapiens, UniProt P08172); assay: Alphascreen Surefire phospho-ERK1/2 functional assay, M2; conditions: for EC50: CHO cells stably expressing human M2, phospho-ERK1/2, read-out: pEC50 M2 (converted); for Emax: CHO, read-out: % Emax cf. ACh, M2
T3 construct: expressed in transfected cells
T3 sequence (P08172 1-466): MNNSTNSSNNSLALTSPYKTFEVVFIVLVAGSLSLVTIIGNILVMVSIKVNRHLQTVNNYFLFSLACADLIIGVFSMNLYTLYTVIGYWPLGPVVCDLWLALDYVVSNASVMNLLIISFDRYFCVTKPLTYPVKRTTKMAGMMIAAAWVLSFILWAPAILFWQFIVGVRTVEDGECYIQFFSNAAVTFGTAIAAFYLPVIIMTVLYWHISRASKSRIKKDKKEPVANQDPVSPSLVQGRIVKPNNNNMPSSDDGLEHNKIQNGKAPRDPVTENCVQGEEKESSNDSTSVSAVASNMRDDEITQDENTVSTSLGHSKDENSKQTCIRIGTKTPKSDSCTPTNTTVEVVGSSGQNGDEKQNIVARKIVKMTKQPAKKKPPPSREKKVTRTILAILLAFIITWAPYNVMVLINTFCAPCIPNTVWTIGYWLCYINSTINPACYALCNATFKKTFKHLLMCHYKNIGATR
Method: as §1, §2

[4] = biological target: T4, human muscarinic M3 receptor (Homo sapiens, UniProt P20309); assay: Alphascreen Surefire phospho-ERK1/2 functional assay, M3; conditions: for EC50: CHO cells stably expressing human M3, phospho-ERK1/2, read-out: pEC50 M3 (converted); for Emax: CHO, read-out: % Emax cf. ACh, M3
T4 construct: expressed in transfected cells
T4 sequence (P20309 whole entry): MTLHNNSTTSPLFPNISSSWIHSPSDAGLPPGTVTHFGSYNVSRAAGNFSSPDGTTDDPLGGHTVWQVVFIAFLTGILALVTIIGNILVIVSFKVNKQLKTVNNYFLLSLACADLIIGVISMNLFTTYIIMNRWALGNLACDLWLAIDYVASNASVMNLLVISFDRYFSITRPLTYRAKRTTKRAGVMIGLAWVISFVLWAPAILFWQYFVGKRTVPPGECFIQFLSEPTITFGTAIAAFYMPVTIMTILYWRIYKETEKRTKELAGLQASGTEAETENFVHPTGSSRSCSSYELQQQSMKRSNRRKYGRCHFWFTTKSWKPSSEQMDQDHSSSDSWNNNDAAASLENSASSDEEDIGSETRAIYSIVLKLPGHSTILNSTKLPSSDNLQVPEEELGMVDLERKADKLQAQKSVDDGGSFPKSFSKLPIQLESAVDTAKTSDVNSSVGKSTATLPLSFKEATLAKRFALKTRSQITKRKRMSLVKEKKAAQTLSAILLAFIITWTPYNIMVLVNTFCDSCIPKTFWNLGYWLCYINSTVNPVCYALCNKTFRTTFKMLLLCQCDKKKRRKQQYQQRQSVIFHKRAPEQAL
Method: as §1, §2

[5] = CHO cells stably expressing human M4
[6] = read-out: % Emax cf. ACh, M1, CHO cells stably expressing human M1, relative to ACh

Row | Compound | EC50 [1] | Emax ([1]; read-out: % Emax cf. ACh, M1) | EC50 [2, 5] | Emax ([2]; read-out: % Emax cf. ACh, M4) | EC50 [3] | Emax [3] | EC50 [4] | Emax [4] | Emax [1, 6] | % Emax cf. ACh, M4 ([2]; CHO cells stably expressing human M4, relative to ACh, listed as 1 - Isomer 1) | Emax ([2]; read-out: % Emax cf. ACh, M4, CHO cells stably expressing human M4, relative to ACh)
1 | CCOC(=O)N1CCC2(CC(N3CCC(F)(C(=O)NC4(C)CCC4)CC3)C2)C1 (mixture of isomers) [Example 11 - mixture of diastereomers, ethyl 2-{4-fluoro-4-[(1-methylcyclobutyl)carbamoyl]piperidin-1-yl}-6-azaspiro[3.4]octane-6-carboxylate] | 28.2 nM | 112% | 204 nM | 77% | > 20000 nM | 6% | > 20000 nM | 4% | – | – | –
2 | CCOC(=O)N1CCC2(CC(N3CCC(C(=O)NC4(C)CCC4)CC3)C2)C1 (single isomer, unassigned) [Example 9 - Isomer 1, ethyl 2-{4-[(1-methylcyclobutyl)carbamoyl]piperidin-1-yl}-6-azaspiro[3.4]octane-6-carboxylate] | 302 nM | 102% | 589 nM | 67% | – | – | – | – | – | – | –
3 | [2H]C([2H])([2H])C1(NC(=O)C2CCN(C3CC4(CCN(C(=O)OCC)C4)C3)CC2)CCC1 (single isomer, unassigned) [Example 21 - Isomer 2, ethyl 2-(4-{[1-(1,1,1-trideuteromethyl)cyclobutyl]carbamoyl}piperidin-1-yl)-6-azaspiro[3.4]octane-6-carboxylate] | 67.6 nM | 107% | 170 nM | 111% | > 20000 nM | 9% | > 20000 nM | 12% | – | – | –
4 | CCOC(=O)N1CC2(CCC(N3CCC(C(=O)NC4(C)CCC4)CC3)C2)C1 (racemic) [Example 12 - racemic, ethyl 6-{4-[(1-methylcyclobutyl)carbamoyl]piperidin-1-yl}-2-azaspiro[3.4]octane-2-carboxylate] | 35.5 nM | 141% | 53.7 nM | 49% | > 20000 nM | 8% | > 20000 nM | 78% | – | – | –
5 | CCOC(=O)N1C2CCC1CC(N1CCC(C(=O)NC3(C)CCC3)CC1)C2 (single isomer, unassigned) [Example 1 - Isomer 1, ethyl 3-{4-[(1-methylcyclobutyl)carbamoyl]piperidin-1-yl}-8-azabicyclo[3.2.1]octane-8-carboxylate] | 324 nM | – | 1020 nM | – | – | – | – | – | 99% | 51% | –
6 | CCOC(=O)N1CCC2(CC(N3CCC(C(=O)NC(C)(C)CC)CC3)C2)C1 (mixture of isomers) [Example 16 - mixture of diastereomers, ethyl 2-{4-[(2-methylbutan-2-yl)carbamoyl]piperidin-1-yl}-6-azaspiro[3.4]octane-6-carboxylate] | 309 nM | 113% | 646 nM | 56% | – | – | – | – | – | – | –
7 | CCOC(=O)N1CCC2(CC(N3CCC(C(=O)NCC4CCC4)CC3)C2)C1 (mixture of isomers) [Example 19 - mixture of diastereomers, ethyl 2-{4-[(cyclobutylmethyl)carbamoyl]piperidin-1-yl}-6-azaspiro[3.4]octane-6-carboxylate] | 363 nM | 109% | 1020 nM | 42% | – | – | – | – | – | – | –
8 | CCOC(=O)N1C2CCC1CC(N1CCC(F)(C(=O)NC3(C)CCC3)CC1)C2 (single isomer, unassigned) [Example 4 - Isomer 2, ethyl 3-{4-fluoro-4-[(1-methylcyclobutyl)carbamoyl]piperidin-1-yl}-8-azabicyclo[3.2.1]octane-8-carboxylate] | 145 nM | – | 1070 nM | – | – | – | – | – | 111% | – | 44%

Continued, in another order:

Row | EC50 [1] | Emax ([1]; read-out: % Emax cf. ACh, M1) | EC50 [2, 5] | Emax ([2]; read-out: % Emax cf. ACh, M4) | EC50 [3] | Emax [3] | EC50 [4] | Emax [4] | Compound | Emax [1, 6] | % Emax cf. ACh, M4 ([2]; CHO cells stably expressing human M4, relative to ACh, listed as 1 - Isomer 1) | Emax ([2]; read-out: % Emax cf. ACh, M4, CHO cells stably expressing human M4, relative to ACh)
9 | 324 nM | 120% | 309 nM | 106% | – | – | – | – | [2H]C([2H])([2H])COC(=O)N1CCC2(CC(N3CCC(C(=O)NC4(CF)CCC4)CC3)C2)C1 (single isomer, unassigned) [Example 28 - Isomer 2, (2,2,2-trideutero)ethyl 2-(4-{[1-(fluoromethyl)cyclobutyl]carbamoyl}piperidin-1-yl)-6-azaspiro[3.4]octane-6-carboxylate] | – | – | –
10 | 81.3 nM | 108% | 257 nM | 110% | – | – | – | – | [2H]C([2H])([2H])COC(=O)N1CCC2(CC(N3CCC(C(=O)NC4(C([2H])([2H])[2H])CCC4)CC3)C2)C1 (single isomer, unassigned) [Example 26 - Isomer 2, (2,2,2-trideutero)ethyl 2-(4-{[1-(1,1,1-trideuteromethyl)cyclobutyl]carbamoyl}piperidin-1-yl)-6-azaspiro[3.4]octane-6-carboxylate] | – | – | –
11 | 407 nM | 110% | 646 nM | 77% | – | – | – | – | [2H]C([2H])([2H])C([2H])([2H])OC(=O)N1CCC2(CC(N3CCC(C(=O)NC4(C([2H])([2H])[2H])C([2H])([2H])C([2H])([2H])C4([2H])[2H])CC3)C2)C1 (mixture of isomers) [Example 31 - mixture of diastereomers, (1,1,2,2,2-pentadeutero)ethyl 2-(4-{[1-(1,1,1-trideuteromethyl)-2,2,3,3,4,4-hexadeuterocyclobutyl]carbamoyl}piperidin-1-yl)-6-azaspiro[3.4]octane-6-carboxylate] | – | – | –
12 | 155 nM | 90% | 219 nM | 67% | – | – | – | – | CCOC(=O)N1CCC2(CC(N3CCC(C(=O)NC4(CF)CCC4)CC3)C2)C1 (single isomer, unassigned) [Example 23 - Isomer 2, ethyl 2-(4-{[1-(fluoromethyl)cyclobutyl]carbamoyl}piperidin-1-yl)-6-azaspiro[3.4]octane-6-carboxylate] | – | – | –
13 | 79.4 nM | 103% | 209 nM | 67% | – | – | – | – | [2H]C([2H])([2H])C1(NC(=O)C2CCN(C3CC4(CCN(C(=O)OCC)C4)C3)CC2)C([2H])([2H])C([2H])([2H])C1([2H])[2H] (single isomer, unassigned) [Example 22 - Isomer 2, ethyl 2-(4-{[1-(1,1,1-trideuteromethyl)-2,2,3,3,4,4-hexadeuterocyclobutyl]carbamoyl}piperidin-1-yl)-6-azaspiro[3.4]octane-6-carboxylate] | – | – | –
14 | 85.1 nM | 105% | 195 nM | 111% | – | – | – | – | [2H]C([2H])([2H])C1(NC(=O)C2CCN(C3CC4(CCN(C(=O)OC([2H])([2H])C([2H])([2H])[2H])C4)C3)CC2)CCC1 (single isomer, unassigned) [Example 30 - Isomer 2, (1,1,2,2,2-pentadeutero)ethyl 2-(4-{[1-(1,1,1-trideuteromethyl)cyclobutyl]carbamoyl}piperidin-1-yl)-6-azaspiro[3.4]octane-6-carboxylate] | – | – | –
